Experimental data taken from US20210038577A1, “THIOREDOXIN REDUCTASE INHIBITORS FOR USE IN THE TREATMENT OF CANCER” (Cinda Pharma AB, priority 2018, published 2021).

Key:
[1] = test system: NB-4 (a leukaemia cell line); assay: MTT cell viability assay, NB-4; format: cell-based; conditions: 72 hrs
Experimental: (§1) MDA-MB-453 (ATCC HTB-131) cells were grown in media with sodium pyruvate. MDA-MB-231 cells (ATCC HTB-26) were grown in DMEM media or L-15 supplemented with Glutamax (1×). U87-MG (ATCC HTB-14) and MDA-MB-468 (ATCC HTB-132) cells were cultured in DMEM supplemented with Glutamax (1×). NB-4 (DSMZ ACC-207) cells were cultured in RPMI 1640.
(§2) Breast cancer and glioblastoma cell lines were plated 4000 cells/well in 96-well plates in the presence of 10% FBS media. The following day cells were treated with various concentrations of the example compounds (0.1% DMSO final) and incubated for 72 hrs. After the incubation an MTT assay was performed to access cell viability. Percent of viability was determined using DMSO vehicle and no cell (blank) controls.

Trx in MDA-MB-231 cells = assay: Intracellular Trx levels by ELISA in MDA-MB-231 tumor cells; format: cell-based, human
Experimental: The human mammary carcinoma cell line MDA-MB-231 was obtained from the American Type Culture Collection (ATCC; Manassas, Va.) and cultured in Leibovitz's L-15 medium (Thermo Fisher Scientific, USA) supplemented with 10% (v/v) heat-inactivated fetal bovine serum (Thermo Fisher Scientific, USA), 10 mM HERBS (Sigma), 25 mM sodium bicarbonate (Sigma), 1× Glutamax (Sigma), 100 IU/mL penicillin and 100 μg/ml streptomycin (Sigma) in a 5% CO2 atmosphere at 37° C. Briefly, cells were seeded at 7500 cells/well in 96-well plates. After 24 h, the cells were treated either with different concentrations of test compounds or DMSO (0.5%; vehicle control) respectively and further incubated at 37° C. in a CO2 incubator. Culture supernatants were collected at different time points, like, immediately after cell plating (−24 h), 0 h (at the time of compound addition), and 1 h, 6 h, 12 h, 24 h, 48 h, 72 h and 96 h following compound addition. Subsequently, cells were lysed from corresponding wells with 0.1% Triton X-100 and the lysates were collected. Trx levels were measured in both the culture supernatants and cell lysates by ELISA using TXN (Human) ELISA Kit [Abnova; Cat no: KA0535] following manufacturer instruction. A standard curve was prepared using different concentrations of the Trx standard (provided in the kit) with the help of GraphPad Prism software (version 5.0; La Jolla, Calif., USA). Trx concentrations for the unknown samples were calculated from the standard curve. The data were expressed as the means of three replicates.

GR from baker's yeast = molecular target: T1, GR from baker's yeast (Saccharomyces cerevisiae, UniProt P41921); assay: Glutathione reductase (GR) activity assay; format: biochemical; conditions: Molar concentration
T1 sequence (P41921 17-483 limits assumed): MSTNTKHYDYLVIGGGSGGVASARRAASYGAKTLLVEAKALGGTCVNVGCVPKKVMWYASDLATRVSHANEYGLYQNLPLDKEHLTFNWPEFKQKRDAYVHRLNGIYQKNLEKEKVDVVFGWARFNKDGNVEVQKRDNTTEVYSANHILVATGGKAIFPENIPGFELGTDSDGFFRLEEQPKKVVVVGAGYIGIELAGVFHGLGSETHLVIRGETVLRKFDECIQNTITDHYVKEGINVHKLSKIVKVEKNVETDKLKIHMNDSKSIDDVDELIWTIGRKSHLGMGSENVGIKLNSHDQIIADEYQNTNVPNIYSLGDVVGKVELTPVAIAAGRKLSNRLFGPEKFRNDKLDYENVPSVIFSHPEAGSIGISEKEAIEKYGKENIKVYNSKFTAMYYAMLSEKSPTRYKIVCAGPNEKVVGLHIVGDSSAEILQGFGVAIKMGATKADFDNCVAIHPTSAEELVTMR
Experimental: GR activity was determined incubating compounds at various concentrations with GR from baker's yeast and 250 μM NADPH for 15 minutes, whereupon 10 mM oxidized glutathione (GSSG) was added to each well and NADPH consumption was followed at OD340. Activity was determined following the consumption of NADPH over time and normalized to DMSO only (Vehicle) and GR lacking (blank) controls.

recombinant TrxR [2] = molecular target: T2, recombinant TrxR (Rattus norvegicus, UniProt O89049); assay: Sec-independent SecTRAP activity (Juglone assay); conditions: compound at the concentration that achieves 100% inhibition of TrxR in the DTNB assay
T2 sequence (O89049 1-499): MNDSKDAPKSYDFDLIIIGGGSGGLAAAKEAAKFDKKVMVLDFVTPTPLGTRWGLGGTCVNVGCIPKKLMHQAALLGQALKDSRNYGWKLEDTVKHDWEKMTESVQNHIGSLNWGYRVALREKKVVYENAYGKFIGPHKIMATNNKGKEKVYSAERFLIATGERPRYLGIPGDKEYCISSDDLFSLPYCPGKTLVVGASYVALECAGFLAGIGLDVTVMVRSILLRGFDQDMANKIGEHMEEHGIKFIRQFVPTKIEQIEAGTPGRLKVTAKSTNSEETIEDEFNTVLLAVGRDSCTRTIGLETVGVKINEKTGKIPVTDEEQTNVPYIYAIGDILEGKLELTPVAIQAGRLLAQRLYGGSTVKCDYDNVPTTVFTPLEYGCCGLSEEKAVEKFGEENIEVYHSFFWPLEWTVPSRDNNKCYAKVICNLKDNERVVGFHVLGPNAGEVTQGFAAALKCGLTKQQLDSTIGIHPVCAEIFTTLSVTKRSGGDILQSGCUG
Experimental: (§3) SecTRAP forming capabilities of compounds with TrxR was determined using the Juglone Assay. Compounds were incubated in the presence of recombinant TrxR and 250 μM NADPH for 15 minutes at concentrations fully inhibiting enzyme activity in the DTNB assay. 100 μM juglone was then added to each well and NADPH consumption was followed at OD340 to determine sustained reductive capacity at the N-terminus of TrxR (SecTRAP Activity). Activity was determined following the consumption of NADPH over time and normalized to DMSO only (Vehicle) and TrxR lacking (blank) controls.
(§4) Aliquots were used in a DTNB assay to determine inhibition of enzyme activity. […] Incubation samples were then added to a reaction buffer containing 250 μM NADPH and 100 μM juglone, whereupon NADPH consumption was followed at OD340 to determine sustained SecTRAP activity.
(§5) Higher % values for juglone activity (juglone reduction activity) in this assay are indicative of stronger prooxidant activity.

[3] = test system: MDA-MB-468 (a breast cancer cell line); assay: MTT cell viability assay, MDA-MB-468; format: cell-based; conditions: 72 hrs
Experimental: as §1, §2

[4] = test system: MDA-MB-231 (a breast cancer cell line); assay: MTT cell viability assay, MDA-MB-231; format: cell-based, human; conditions: 72 hrs
Experimental: as §1, §2

[5] = test system: U-87 MG (a glioblastoma cell line); assay: MTT cell viability assay, U-87 MG; format: cell-based; conditions: 72 hrs
Experimental: as §1, §2

MDA-MB-231 cells = assay: Alamar-Blue cell viability assay; format: cell-based, human; conditions: 72 hrs
Experimental: MDA-MB-231 cells were plated 2000 cells/well in 96-well black optical plates in the presence of 10% FBS media containing 25 nM selenite. The following day cells were treated with various concentrations of compounds (0.1% DMSO final) and incubated for 72 hrs. After the incubation Alamar Blue reagent was added to each well and incubated for additional 3 hrs. Fluorescence was read ex:530 nm/em:590 nm, and percent of viability was determined using DMSO vehicle and no cell (blank) controls.

recombinant TrxR [6] = molecular target: T2, recombinant TrxR
Experimental: as §3, §4, §5

O=C1C=C[C@H]2[C@@H]3C(=O)N(Cc4ccccc4)C(=O)[C@@H]3[C@@H]1N2Cc1ccccc1 (relative stereo) [OT-2056, exo-4,11-Dibenzyl-4,11-diazatricyclo[5.3.1.0^2,6]undec-9-ene-3,5,8-trione]
IC50 [1]: 420 nM | time after which intracellular Trx is reduced compared with control cells (Trx in MDA-MB-231 cells; at 1 μM): 24 h | intracellular levels of Trx compared with control cells (Trx in MDA-MB-231 cells; at 1 μM and 10 μM): reduced | time after which intracellular Trx is reduced compared with control cells (Trx in MDA-MB-231 cells; at 10 μM): 6 h | IC50 (GR from baker's yeast): > 30000 nM | Juglone Act (% @ 100% DTNB inhibition) (recombinant TrxR [2]): 107.692%

CC(=O)OC[C@H]1O[C@@H]([S-])[C@H](OC(C)=O)[C@@H](OC(C)=O)[C@@H]1OC(C)=O.CCP(CC)CC.[Au+] [Auranofin, reference compound]
IC50 [3]: 310 nM | IC50 (GR from baker's yeast): > 30000 nM | IC50 [4]: 1660 nM | IC50 [5]: 1720 nM | IC50 (MDA-MB-231 cells): 1400 nM | classification as SecTRAP forming agent (recombinant TrxR [6]): SecTRAP-forming agent

COc1ccc([N+](=O)[O-])c(S(=O)(=O)Cc2ccccc2)n1 [OT-1011, 2-Benzylsulfonyl-6-methoxy-3-nitropyridine]
IC50 [1]: 1210 nM | intracellular levels of Trx compared with control cells (Trx in MDA-MB-231 cells; at 1 μM and 10 μM): reduced | time after which intracellular Trx is reduced compared with control cells (Trx in MDA-MB-231 cells; at 1 μM and 10 μM): 6 to 12 h | IC50 (GR from baker's yeast): > 30000 nM | Juglone Act (% @ 100% DTNB inhibition) (recombinant TrxR [2]): 83.67%

COc1ccc([N+](=O)[O-])c(S(=O)(=O)c2ccccn2)n1 [OT-1012, 6-Methoxy-3-nitro-2-(pyridin-2-ylsulfonyl)pyridine]
intracellular levels of Trx compared with control cells (Trx in MDA-MB-231 cells; at all doses): reduced | time after which intracellular Trx is reduced compared with control cells (Trx in MDA-MB-231 cells; at all doses): 12 h | IC50 (GR from baker's yeast): > 30000 nM | Juglone Act (% @ 100% DTNB inhibition) (recombinant TrxR [2]): 89.8% | IC50 ([5]; Homo sapiens, U-87 MG): 8200 nM

COC(=O)CCS(=O)(=O)c1nc(OC)ccc1[N+](=O)[O-] [OT-1113, methyl 3-((6-methoxy-3-nitropyridin-2-yl)sulfonyl)propanoate]
IC50 [1]: 1170 nM | time after which intracellular Trx is reduced compared with control cells (Trx in MDA-MB-231 cells; at 1 μM): 48 h | intracellular levels of Trx compared with control cells (Trx in MDA-MB-231 cells; at 1 μM and 10 μM): reduced | time after which intracellular Trx is reduced compared with control cells (Trx in MDA-MB-231 cells; at 10 μM): 65 h | IC50 (GR from baker's yeast): > 30000 nM | Juglone Act (% @ 100% DTNB inhibition) (recombinant TrxR [2]): 91.16%

CC[S+]([O-])c1nc(OC)ccc1[N+](=O)[O-] (stereo not drawn) [OT-1131, 2-(ethylsulfinyl)-6-methoxy-3-nitropyridine]
intracellular levels of Trx compared with control cells (Trx in MDA-MB-231 cells; at 1 μM and 10 μM): reduced | time after which intracellular Trx is reduced compared with control cells (Trx in MDA-MB-231 cells; at 1 μM and 10 μM): ≤ 6 h
